# Experimental data from patent publication US20090318552A1, “Pharmaceutical composition comprising shikonin derivatives from lithospermum erythrorhizo dor treating or preventing diabetes mellitus and the use thereof” (priority 2006, published 2009).
# “Also recorded” adds a separate entry of the source.
# Target: T1, KATP ion channels of beta cells in the pancreas (HIT-T15 cells) (UniProt A0A1U7QRT4+Q09427)
# T1 construct: endogenous in cells; host or cells: HIT-T15 cells
# Assay: Electro-physiological experiment: whole cell patch clamp recording of KATP current
# Format: cell-based
# Conditions: single compounds vs GBC; FIG. 5
# Protocol: HIT-T15 cells used for the experimental examples below were cultivated in an RPMI 1640 culture medium containing horse serum (10%, v/v), fetal bovine serum (2.5% v/v), and 1% penicillin-streptomycin, in a 5% CO2 incubator at 37° C.
# Since type II diabetes is directly related to the KATP ion channels of beta cells in the pancreas (Tarasov, A. et al., Diabetes., 53(3), pp. S113-S122, 2004), it was tested whether or not the Lithospermum erythrorhizon extract obtained in the above example or the shikonin compounds isolated therefrom blocks the KATP ion channels of beta cells in the pancreas.
# The ion current was recorded by a conventional whole cell patch clamp method, using a patch clamp amplifier (EPC-9, Heka Elektronik, Lambrecht, Germany). The measurement electrode was pulled from a borosilicate glass capillary using a puller (DMZ-Universal Puller; Dagan Co., USA). The electrode was selected to have a resistance of 6 to 9 MΩ when a solution was filled in the electrode. A cover glass, to which the cells were adhered, was placed on a microscope, and the extra-cellular fluid was allowed to flow, due to gravity, at a speed of up to 0.5 ml/min. When measuring the KATP electric current, the solution inside the electrode included (in mM): 10 NaCl, 102 KCl, 1 CaCl2, 1 MgCl2, 10 HEPES, 0.1 Na2-ATP, 1 Na2-GTP, and 10 EGTA (pH 7.2). To utilize the voltage-clamp method in taking records, the capacitance and series resistance of the cell membranes were compensated by 80% or higher, and the low-pass filter was set to 1 kHZ during the experiments. To measure the KATP electric current, the cell solution was substituted with 110 mM of a barium solution (mM: 110 BaCl2, 10 HEPES, 10 glucose), after which the membrane potential was fixed at −60 mV, and the resulting introvert current was recorded. The experiment results were stored in a Pentium level IBM computer and analyzed using Pulse/Pulsefit (v8.65) software (Heka Elektronik, Lambrecht, Germany), and all of the experiments were performed at room temperature.
# T1 sequence (Q09427 whole entry): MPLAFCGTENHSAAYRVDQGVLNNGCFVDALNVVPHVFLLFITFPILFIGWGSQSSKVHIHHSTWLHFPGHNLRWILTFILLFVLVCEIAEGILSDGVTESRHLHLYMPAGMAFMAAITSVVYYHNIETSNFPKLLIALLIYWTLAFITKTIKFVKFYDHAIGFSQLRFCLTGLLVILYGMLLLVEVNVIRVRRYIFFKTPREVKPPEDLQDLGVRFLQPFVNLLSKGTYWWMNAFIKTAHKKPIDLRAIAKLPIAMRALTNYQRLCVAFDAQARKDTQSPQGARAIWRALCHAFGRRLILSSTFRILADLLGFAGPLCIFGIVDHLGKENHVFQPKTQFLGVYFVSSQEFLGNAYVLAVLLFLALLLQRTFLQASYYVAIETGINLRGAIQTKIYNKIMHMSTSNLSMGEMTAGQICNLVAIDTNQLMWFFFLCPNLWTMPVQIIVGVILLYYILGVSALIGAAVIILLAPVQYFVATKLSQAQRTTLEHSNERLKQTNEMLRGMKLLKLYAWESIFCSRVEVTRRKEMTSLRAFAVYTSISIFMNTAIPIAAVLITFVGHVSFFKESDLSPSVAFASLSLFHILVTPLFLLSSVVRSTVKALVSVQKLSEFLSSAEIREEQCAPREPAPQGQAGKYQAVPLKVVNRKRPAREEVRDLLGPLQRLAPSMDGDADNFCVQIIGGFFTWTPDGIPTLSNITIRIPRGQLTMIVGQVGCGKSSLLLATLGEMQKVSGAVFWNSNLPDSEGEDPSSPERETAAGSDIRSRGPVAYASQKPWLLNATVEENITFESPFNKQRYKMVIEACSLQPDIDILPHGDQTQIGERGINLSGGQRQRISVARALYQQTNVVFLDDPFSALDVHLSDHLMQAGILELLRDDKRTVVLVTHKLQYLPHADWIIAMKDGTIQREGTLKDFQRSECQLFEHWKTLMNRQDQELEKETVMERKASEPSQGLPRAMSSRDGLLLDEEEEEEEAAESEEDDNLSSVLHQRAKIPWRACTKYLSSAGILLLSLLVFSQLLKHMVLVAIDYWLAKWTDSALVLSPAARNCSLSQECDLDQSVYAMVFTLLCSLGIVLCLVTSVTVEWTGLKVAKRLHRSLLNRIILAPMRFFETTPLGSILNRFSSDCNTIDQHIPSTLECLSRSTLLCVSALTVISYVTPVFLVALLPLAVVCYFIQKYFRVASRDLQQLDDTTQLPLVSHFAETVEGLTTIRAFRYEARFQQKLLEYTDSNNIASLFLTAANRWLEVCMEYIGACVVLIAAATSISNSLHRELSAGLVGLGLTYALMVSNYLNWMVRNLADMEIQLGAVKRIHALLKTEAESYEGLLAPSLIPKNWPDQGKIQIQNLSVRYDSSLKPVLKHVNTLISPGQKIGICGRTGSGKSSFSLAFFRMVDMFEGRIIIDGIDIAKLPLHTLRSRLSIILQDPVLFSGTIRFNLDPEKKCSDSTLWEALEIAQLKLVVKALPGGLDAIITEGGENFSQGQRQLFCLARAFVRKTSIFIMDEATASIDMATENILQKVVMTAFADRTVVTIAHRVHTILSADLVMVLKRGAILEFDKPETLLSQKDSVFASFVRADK
# T1 sequence (A0A1U7QRT4 1-390): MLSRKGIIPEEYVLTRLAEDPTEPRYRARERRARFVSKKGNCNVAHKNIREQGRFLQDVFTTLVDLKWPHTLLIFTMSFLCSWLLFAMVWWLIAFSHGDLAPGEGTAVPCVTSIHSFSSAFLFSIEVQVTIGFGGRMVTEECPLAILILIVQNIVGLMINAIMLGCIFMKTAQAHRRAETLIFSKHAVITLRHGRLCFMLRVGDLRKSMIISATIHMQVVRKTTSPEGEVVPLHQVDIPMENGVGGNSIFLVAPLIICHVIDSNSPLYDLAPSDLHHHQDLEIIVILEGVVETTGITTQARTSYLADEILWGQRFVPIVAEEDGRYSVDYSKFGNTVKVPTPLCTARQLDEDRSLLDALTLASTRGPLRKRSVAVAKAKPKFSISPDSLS
row,Structure (SMILES),inhibition of KATP ion channels by shikonin single compounds compared with GBC
1,"CC(C)=CCC(OC(=O)C=C(C)C)C1=CC(=O)c2c(O)ccc(O)c2C1=O (stereo not drawn) [DS, β. β-dimethylacryl Shikonin]",effectively inhibit KATP ion channels; also recorded: the best in providing the inhibitory effects
2,"CC(C)=CCC(OC(=O)C(C)C)C1=CC(=O)c2c(O)ccc(O)c2C1=O (stereo not shown) [BS, Isobutyryl Shikonin]",effectively inhibit KATP ion channels
3,"CCC(C)C(=O)OC(CC=C(C)C)C1=CC(=O)c2c(O)ccc(O)c2C1=O (stereo not drawn) [MS, α-methyl-n-butyryl Shikonin]",effectively inhibit KATP ion channels
4,"CC(C)=CCC(OC(=O)CC(C)C)C1=CC(=O)c2c(O)ccc(O)c2C1=O (stereo not shown) [VS, Isovaleryl Shikonin]",effectively inhibit KATP ion channels; also recorded: the best in providing the inhibitory effects
